Laboratory results from US11879021B2, “Cyclic peptides and uses thereof” (UNIVERSITÉ DE MONTRÉAL, priority 2016, dated 2024).

Test system: mice exposed to intense blue light
Assay type: in vivo
Conditions: 289 nmol/kg daily s.c. for 7 days
Source text: The acute model of light-induced retinal degeneration uses short exposure to blue light to induce photoreceptor cell death leading to loss of vision (Grimm and Remé, Methods Mol Biol. 2013; 935: 87-97). Mice were exposed mice to intense blue light (wavelength=425 nm; exposure intensity=6000 lux) for five (5) successive days. The treatment was started one day after start of blue-light exposure (D1), for seven (7) successive days of daily subcutaneous (s.c) administration at 289 nmol/kg of test item solutions (MPE-001 and MPE-298). On Day 7, mice were dark adapted for electroretinography (ERG) analysis. […]
ERGs were recorded from wildtype and age matched knockout mice on Espion® ERG Diagnosys machine and a ColorDome® Ganzfeld stimulator (Diagnosys LLC, Lowell, MA). […]
Flash ERG were measured using corneal DTL Plus electrodes (Diagnosys® LLC). […] Scotopic responses were simultaneously recorded from both eyes of the dark-adapted animals at the following increasing light intensities: 0.5, 1.0, 3.0 and 10.0 cd-s/m^2. […] The amplitude and latency of major ERG components were measured with the Espion® software (Diagnosys® LLC). […] The ERG a-wave amplitudes were measured from the baseline to the primary negative peak and the b-wave was measured from the trough of the a-wave to the maximum of the […] positive peak. […]

C=CCN1CC#CCN(NC(=O)[C@H](C)N)C(=O)N[C@H](Cc2c[nH]c3ccccc23)C(=O)N[C@@H](C)C(=O)N[C@@H](Cc2c[nH]c3ccccc23)C(=O)N[C@H](Cc2ccccc2)C(=O)N[C@H](C(N)=O)CCCC1 [MPE-298]
subretinal inflammation (immune cell infiltration, notably IL-1β-expressing immune cells, in the retina) (F4/80-positive cells in RPE flatmounts): reduce
outer nuclear layer (ONL) thickness (mice exposed to blue light 6000 lux): preserved
